Experimental data as given in patent publication US6723716B1, “7-acylamino-3-heteroarylthio-3-cephem carboxylic acid antibiotics and prodrugs thereof” (Essential Therapeutics, Inc., priority 1999, dated 2004).
Converted amounts (≈) assume the structure as drawn.

How the values were obtained:
[1] = test system: E. coli ATCC25992; assay: Broth microdilution MIC (NCCLS); assay type: cell-based; settings: Escherichia coli
How it was run: (§1)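 MIC = lowest drug concentration with no bacterial growth, read at 650 nm and visually after 24 h at 35° C. Assay run in MHB per NCCLS, inoculum 5×10^5 CFU/mL, compounds serially diluted 2-fold in plate.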

[2] = test system: E. faecalis ATCC 29212; assay: Broth microdilution MIC (NCCLS); assay type: cell-based; settings: Enterococcus faecalis, ATCC29212
How it was run: (§2)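 Overnight MHB cultures (20 h, 35° C, shaking) → staphylococci diluted 1:10, grown 1 h, diluted 1:1000; enterococci diluted 1:333 (E. faecium) or 1:666 (E. faecalis) from overnight → 2-fold compound dilutions in MHB, 5×10^5 CFU/mL final → 24 h, 35° C → OD650 + visual; MIC = no growth.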

[3] = test system: E. faecalis VanB (Van^R); assay: Broth microdilution MIC (NCCLS); assay type: cell-based; settings: Enterococcus faecalis
How it was run: as §2

[4] = test system: E. faecium A491 (Amp^R); assay: Broth microdilution MIC (NCCLS); assay type: cell-based; settings: Enterococcus faecium
How it was run: as §2

[5] = test system: E. faecium ATCC 35667; assay: Broth microdilution MIC (NCCLS); assay type: cell-based; settings: Enterococcus faecium, ATCC35667
How it was run: as §2

[6] = test system: E. faecium VanA (Van^R); assay: Broth microdilution MIC (NCCLS); assay type: cell-based; settings: Enterococcus faecium
How it was run: as §2

[7] = test system: P. aeruginosa ATCC 27853; assay: Broth microdilution MIC (NCCLS); assay type: cell-based; settings: Pseudomonas aeruginosa, ATCC27853
How it was run: as §1

[8] = test system: S. aureus 76 (Meth^R)(lac^+); assay: Broth microdilution MIC (NCCLS); assay type: cell-based; settings: Staphylococcus aureus
How it was run: as §2

[9] = test system: S. aureus ATCC 13709 (Meth^S); assay: Broth microdilution MIC (NCCLS); assay type: cell-based; settings: Staphylococcus aureus, ATCC13709, S. aureus ATCC 13709 (Meth^S); read-out: MIC
How it was run: as §2

[10] = test system: S. aureus ATCC 29213; assay: Broth microdilution MIC (NCCLS); assay type: cell-based; settings: Staphylococcus aureus, ATCC29213; S. aureus ATCC 29213; Mueller-Hinton broth, 24 h at 35° C.; read-out: MIC
How it was run: as §2

[11] = test system: S. aureus ATCC 33593 (Meth^R); assay: Broth microdilution MIC (NCCLS); assay type: cell-based; settings: Staphylococcus aureus, ATCC33593
How it was run: as §2

[12] = test system: S. aureus Col (Meth^R)(lac^−); assay: Broth microdilution MIC (NCCLS); assay type: cell-based; settings: Staphylococcus aureus
How it was run: as §2

[13] = test system: S. aureus PC1 (Meth^S)(lac^+); assay: Broth microdilution MIC (NCCLS); assay type: cell-based; settings: Staphylococcus aureus
How it was run: as §2

[14] = test system: S. haemolyticus 05 (Meth^R); assay: Broth microdilution MIC (NCCLS); assay type: cell-based; settings: Staphylococcus haemolyticus
How it was run: as §2

[15] = test system: S. aureus ATCC 13709 (Smith diffuse); assay: Murine lethal bacteremic peritonitis (septicemia) efficacy; assay type: in vivo, mice; settings: for responders at 0.312 mg/kg: dose 0.312 mg/kg s.c. at 0 and 2 h post-challenge; for responders at 0.625 mg/kg: dose 0.625 mg/kg s.c. at 0 and 2 h post-challenge; for responders at 1.25 mg/kg: dose 1.25 mg/kg s.c. at 0 and 2 h post-challenge; for responders at 2.5 mg/kg: dose 2.5 mg/kg s.c. at 0 and 2 h post-challenge; for ED50: ATCC13709, mice, S. aureus ATCC 13709 i.p., s.c. at 0 and 2 h post-challenge, probit method
How it was run: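 Male Swiss-Webster mice, 10/group, challenged i.p. with 2.98×10^7 cfu log-phase bacteria in 7% hog-gastric mucin. Serial two-fold doses given s.c. at 0 and 2 h post-challenge; ED50 by probit from survival.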

[16] = Staphylococcus aureus, ATCC13709, sc, read-out: Efficacy in murine septicemia % survival
[17] = dose 5 mg/kg s.c. at 0 and 2 h post-challenge

Structure (SMILES)	MIC [1]	MIC [2]	MIC [3]	MIC [4]	MIC [5]	MIC [6]	MIC [7]	MIC [8]	MIC [9]	MIC [10]	MIC [11]	MIC [12]	MIC [13]	MIC [14]	responders at 0.312 mg/kg [15, 16]	responders at 0.625 mg/kg [15, 16]	responders at 1.25 mg/kg [15, 16]	responders at 2.5 mg/kg [15, 16]	ED50 ([15]; Staphylococcus aureus)	Efficacy in murine septicemia % survival [15, 17]	other results
NCCSCc1cnccc1SC1=C(C(=O)O)N2C(=O)[C@@H](NC(=O)/C(=N\O)c3nsc(N)n3)[C@H]2SC1 [Cmpd 18, (7R)-7-[(Z)-2-(5-amino-1,2,4-thiadiazol-3-yl)-2-(hydroxyimino)acetamido]-3-[3-(2-aminoethylthiomethyl)pyrid-4-ylthio]-3-cephem-4-carboxylic acid]	0.5 µg/mL (≈ 0.879 µM)	0.13 µg/mL (≈ 0.229 µM)	0.25 µg/mL (≈ 0.44 µM)	32 µg/mL (≈ 56.3 µM)	0.5 µg/mL (≈ 0.879 µM)	1 µg/mL (≈ 1.76 µM)	> 32 µg/mL	1 µg/mL (≈ 1.76 µM)	0.13 µg/mL (≈ 0.229 µM)	0.13 µg/mL (≈ 0.229 µM)	1 µg/mL (≈ 1.76 µM)	1 µg/mL (≈ 1.76 µM)	0.13 µg/mL (≈ 0.229 µM)	2 µg/mL (≈ 3.52 µM)	30%	60%	100%	100%	0.46 mg/kg	5/100%	–
NCCSCc1cnccc1SC1=C(C(=O)O)N2C(=O)[C@@H](NC(=O)/C(=N\O)c3cccc(N)n3)[C@H]2SC1 [Cmpd 24, (7R)-7-[(Z)-2-(2-aminopyrid-6-yl)-2-(hydroxyimino)acetamido]-3-[3-(2-aminoethylthiomethyl)pyrid-4-ylthio]-3-cephem-4-carboxylic acid]	16 µg/mL (≈ 28.5 µM)	0.25 µg/mL (≈ 0.445 µM)	0.5 µg/mL (≈ 0.89 µM)	32 µg/mL (≈ 57 µM)	1 µg/mL (≈ 1.78 µM)	2 µg/mL (≈ 3.56 µM)	> 32 µg/mL	1 µg/mL (≈ 1.78 µM)	0.25 µg/mL (≈ 0.445 µM)	0.25 µg/mL (≈ 0.445 µM)	2 µg/mL (≈ 3.56 µM)	1 µg/mL (≈ 1.78 µM)	0.25 µg/mL (≈ 0.445 µM)	2 µg/mL (≈ 3.56 µM)	–	30%	90%	100%	0.76 mg/kg	5/100%	Efficacy in murine septicemia % survival ([15]; dose 10 mg/kg s.c. at 0 and 2 h post-challenge): 10/100%
NCCSCc1cnccc1SC1=C(C(=O)O)N2C(=O)C(NC(=O)/C(=N\O)c3csc(N)n3)C2SC1 (stereo not shown) [Cmpd 19]	4 µg/mL (≈ 7.05 µM)	0.5 µg/mL (≈ 0.881 µM)	1 µg/mL (≈ 1.76 µM)	> 32 µg/mL	2 µg/mL (≈ 3.52 µM)	4 µg/mL (≈ 7.05 µM)	> 32 µg/mL	2 µg/mL (≈ 3.52 µM)	0.5 µg/mL (≈ 0.881 µM)	0.5 µg/mL (≈ 0.881 µM)	2 µg/mL (≈ 3.52 µM)	2 µg/mL (≈ 3.52 µM)	0.5 µg/mL (≈ 0.881 µM)	4 µg/mL (≈ 7.05 µM)	20%	80%	100%	–	–	–	responders at 0.078 mg/kg ([15]; Staphylococcus aureus, ATCC13709, sc, dose 0.078 mg/kg s.c. at 0 and 2 h post-challenge, read-out: Efficacy in murine septicemia % survival): 20%; responders at 0.156 mg/kg ([15]; Staphylococcus aureus, ATCC13709, sc, dose 0.156 mg/kg s.c. at 0 and 2 h post-challenge, read-out: Efficacy in murine septicemia % survival): 20%
N=C(N)NCCSCc1cnccc1SC1=C(C(=O)O)N2C(=O)[C@@H](NC(=O)/C(=N\O)c3nsc(N)n3)[C@H]2SC1 [Cmpd 25, (7R)-7-[(Z)-2-(5-amino-1,2,4-thiadiazol-3-yl)-2-(hydroxyimino)acetamido]-3-[3-(2-guanidinoethylthiomethyl)pyrid-4-ylthio]-3-cephem-4-carboxylic acid]	1 µg/mL (≈ 1.64 µM)	0.13 µg/mL (≈ 0.213 µM)	0.25 µg/mL (≈ 0.409 µM)	32 µg/mL (≈ 52.4 µM)	0.5 µg/mL (≈ 0.819 µM)	1 µg/mL (≈ 1.64 µM)	> 32 µg/mL	1 µg/mL (≈ 1.64 µM)	0.13 µg/mL (≈ 0.213 µM)	0.25 µg/mL (≈ 0.409 µM)	1 µg/mL (≈ 1.64 µM)	1 µg/mL (≈ 1.64 µM)	0.13 µg/mL (≈ 0.213 µM)	2 µg/mL (≈ 3.27 µM)	80%	100%	100%	100%	< 0.31 mg/kg	5/100%	–
